{
  "source": "patent US7074768B2",
  "about": "“Modified protein kinase A-specific oligonucleotides and methods of their use” (Idera Pharmaceuticals, Inc., priority 1995, dated 2006)",
  "key": {"[1]": {"tested_on": "1A9 human ovarian cancer cells", "assay": "Soft agar growth of 1A9 cells", "type": "cell-based", "protocol": "Cell lines. The 1A9 cell line is a clone of the human ovarian carcinoma cell line, A2780. 1A9 cells were kindly provided by Giannakakou, NCI Bethesda, Md., USA. Cells were maintained in RPMI medium supplemented with 10% heat-inactivated FBS, 20 mM HEPES, pH 7.4 penicillin (100 UI/ml), streptomycin (100 μg/ml) and 4 mM glutamine (ICN, Irvine, UK) in a humified atmosphere of 95% air and 5% CO2 at 37° C.\n(§1) Soft agar growth. Cells (10^4 cells/well) were seeded in 0.5 ml of 0.3% Difco Noble agar (Difco, Detroit, Mich.) supplemented with complete culture medium. This suspension was layered over 0.5 ml of 0.8% agar-medium base layer in 24 multiwell cluster dishes (Becton Dickinson) and treated with various concentrations of HYB 165 or HYB508 every 48 hours for three times. After 12 days the cells were stained with nitroblue tetrazolium (Sigma, St. Louis, Mo.) and colonies larger than 0.05 mm were counted."}, "[2]": {"tested_on": "OVCAR-3 ovarian cancer cells", "assay": "Soft agar growth of OVCAR-3 cells", "type": "cell-based, human", "protocol": "Cell lines. OVCAR human ovarian cancer cells were purchased from American Type Culture Collection (Rockville, Md., USA). Cells were maintained in DMEM and HAM'S F-12 (1:1) supplemented with 10% heat-inactivated FBS, 20 mM HEPES, pH 7.4, penicillin (100 UI/ml), streptomycin (100 μg/ml) and 4 mM glutamine (ICN, Irvine, UK) in a humified atmosphere of 95% air and 5% CO2 at 37° C.\nas §1, with “HYB295” for “HYB508”"}, "[3]": {"tested_on": "GEO colon cancer xenografts", "assay": "GEO colon cancer xenografts in nude mice (tumor growth, survival)", "type": "in vivo", "settings": "for inhibition of tumor growth: 10 mg/kg/dose", "protocol": "We investigated the antitumor activity of HYB 165 (AS RIα) in nude mice bearing GEO colon cancer xenografts, using either the intraperitoneal (i.p.) or the oral route of administration. When established GEO tumors of approximately […] were detectable, groups of 10 mice were treated i.p. with either HYB 165 or a control modified backbone oligonucleotide with a scrambled sequence, at 5 or 10 mg/kg/dose, daily on days 7 to 11 and 14 to 18. […] The control oligonucleotide produced no inhibition at 10 mg/kg/dose.\nFollowing oral administration, modified backbone oligonucleotides (MBOs) are absorbed in the upper and lower part of the GI tract and distributed to major organs (S. Agrawal and R. Zhang, In: Antisense Research and Application, S. T. Crooke, ed.), Handbook of Experimental Pharmacology, Springer, Berlin, p. 525–543 (1998). Therefore, HYB 165 and the control oligonucleotide were administered to GEO tumor-bearing mice as described above, except that HYB 165 and the control oligonucleotide were administered orally.\nOn day 7 after tumor cell injection, one group of 10 mice was treated with taxol (20 mg/kg/dose, i.p.), and the treatment was repeated every 2 weeks (on day 21 and day 35) for a total of three cycles. Two other groups of mice were treated with either HYB 165 (AS RIα) or a control MBO with a scrambled sequence (10 mg/kg/dose, p.o.), daily for five days (days 8–12). Treatment was repeated every 2 weeks (days 22–26 and days 36–40) for a total of three cycles. Two more groups of mice were treated with taxol and either HYB 165 or the control MBO, administering the taxol (20 mg/kg/dose, i.p.) on day 7, followed by oral administration of either HYB 165 or the control MBO daily for five days (days 8–12). The sequential treatment was repeated with the same schedule every 2 weeks for a total of three cycles."}, "AR": {"tested_on": "AR", "assay": "Histochemical analysis of GEO tumors: AR", "type": "in vivo", "settings": "after two cycles", "description": "Tumor specimens from the different groups of mice were examined by histochemical analysis at different time points to evaluate the expression of a variety of biological parameters.\nTGFα and AR are growth factors which bind to EGFR and control human colon cancer growth through autocrine and paracrine mechanisms (F. Ciardiello and G. Tortora, Clin. Cancer Res. 4:821–828 (1998); D. S. Salomon, Crit. Rev. Oncol. Hematol. 19:183–232 (1995))."}, "p27": {"tested_on": "p27", "assay": "Histochemical analysis of GEO tumors: p27", "type": "in vivo", "description": "Tumor specimens from the different groups of mice were examined by histochemical analysis at different time points to evaluate the expression of a variety of biological parameters. […] No other treatment was able to affect RIα expression.\nLoda et al. (Nature Medicine 3:231–234 (1997)) discloses that the cyclin-dependent kinase (CDK) inhibitor p27 is […] related to cell entry into S phase and proliferation and that reduction of its expression correlates with poor prognosis in colon cancer patients."}},
  "data": [
    {"substance": "HYB 165: Hybrid 18-mer mixed backbone antisense to PKA RIα, GCGUGCCTCCTCACUGGC (SEQ ID NO:4), 2-O-methyl ribonucleotides at 5′ and 3′ ends (sugars by position and backbone not given here; 2'-O-methyl ribonucleotides at both ends, mixed backbone)", "values": [
      {"measurement": "inhibition of cell growth", "setting": "[1]; 0.1 μM", "result": "approximately 5%"},
      {"measurement": "inhibition of cell growth", "setting": "[1]; 0.5 μM", "result": "about 41%"},
      {"measurement": "inhibition of cell growth", "setting": "[1]; 1 μM", "result": "about 90%"},
      {"measurement": "inhibition of cell growth", "setting": "[1]; 2.5 μM", "result": "over 95%"},
      {"measurement": "inhibition of cell growth", "setting": "[2]; 0.1 μM", "result": "approximately 25%"},
      {"measurement": "inhibition of cell growth", "setting": "[2]; 0.5 μM", "result": "about 58%"},
      {"measurement": "inhibition of cell growth", "setting": "[2]; 1 μM", "result": "about 75%"},
      {"measurement": "inhibition of cell growth", "setting": "[2]; 2.5 μM", "result": "about 95%"},
      {"measurement": "inhibition of tumor size", "setting": "[3]; 10 mg/kg/dose p.o., at the completion of the three cycles of treatment", "result": "over 50%"},
      {"measurement": "tumor growth", "setting": "[3]; MBO 10 mg/kg/dose p.o. in combination with taxol 20 mg/kg/dose i.p., three cycles", "result": "marked and sustained inhibition of tumor growth"},
      {"measurement": "survival", "setting": "[3]; MBO p.o. in combination with taxol i.p., three cycles", "result": "prolonged mouse life span"},
      {"measurement": "tolerability (weight loss, signs of acute or delayed toxicity)", "setting": "[3]; combined treatment with taxol and HYB 165", "result": "well tolerated"},
      {"measurement": "inhibition of tumor growth", "setting": "[3]; i.p., daily on days 7 to 11 and 14 to 18, FIG. 16A", "result": "up to 40%"},
      {"measurement": "inhibition of tumor growth", "setting": "[3]; oral, two cycles, vs untreated mice, FIG. 16B", "result": "about 60%"},
      {"measurement": "tumor growth", "setting": "[3]; single agent, three cycles (taxol 20 mg/kg/dose i.p.; MBO 10 mg/kg/dose p.o.), FIG. 17A", "result": "inhibited tumor growth"},
      {"measurement": "survival time", "setting": "[3]; single agent, three cycles, FIG. 17B", "result": "increased survival time as compared to the control group"},
      {"measurement": "time of very slow tumor growth following the end of treatment", "setting": "[3]; taxol 20 mg/kg/dose i.p. and HYB 165 10 mg/kg/dose p.o., three cycles", "result": "approximately 60 days"},
      {"measurement": "mice still alive after 15 weeks", "setting": "[3]; taxol and HYB 165 in combination", "result": "about 50%"},
      {"measurement": "expression of AR", "setting": "AR; in combination with taxol", "result": "further enhanced"},
      {"measurement": "expression of AR", "setting": "AR; single agent", "result": "inhibited the expression of TGF α and AR"},
      {"measurement": "p27 expression", "setting": "p27; single agent", "result": "able to increase p27 expression"},
      {"measurement": "increase in intensely positive cell staining for p27", "setting": "p27; taxol and antisense RIα in combination", "result": 2.5, "unit": "fold"}
    ]}
  ]
}
